Where “and” joins values, the source holds several entries; their conditions need not be identical. Equal entries are not always repeated. Inconclusive results and toxic doses are left out. Cut-off read from the data, not from the text of the source: active = T/C of 150% or more; inactive = T/C below 125%.
System: L1210 leukemia ip in BDF1 mice, survival T/C
Test: NCI In Vivo Anticancer Drug Screen. Data for tumor model L1210 Leukemia (intraperitoneal) in B6D2F1 (BDF1) mice
Details: endpoint: mean survival time, higher = longer survival
Outline: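 Read-out is survival time, reported as the treated-group measurement over the vehicle-control measurement.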

[1] = dose: 100.0 mg/kg/injection, schedule: Q01DX001 (ip), vehicle: carboxymethylcellulose (CMC)
[2] = dose: 200.0 mg/kg/injection, schedule: Q01DX001 (ip), vehicle: carboxymethylcellulose (CMC)
[3] = dose: 400.0 mg/kg/injection, schedule: Q01DX001 (ip), vehicle: carboxymethylcellulose (CMC)
[4] = dose: 100.0 mg/kg/injection, schedule: Q04DX003 (ip), vehicle: saline
[5] = dose: 200.0 mg/kg/injection, schedule: Q04DX003 (ip), vehicle: saline
[6] = dose: 100.0 mg/kg/injection, schedule: Q01DX001 (ip), vehicle: saline
[7] = dose: 200.0 mg/kg/injection, schedule: Q01DX001 (ip), vehicle: saline
[8] = dose: 15.0 mg/kg/injection, schedule: Q01DX Z (ip), vehicle: carboxymethylcellulose (CMC)
[9] = dose: 30.0 mg/kg/injection, schedule: Q01DX Z (ip), vehicle: carboxymethylcellulose (CMC)
[10] = dose: 60.0 mg/kg/injection, schedule: Q01DX Z (ip), vehicle: carboxymethylcellulose (CMC)
[11] = dose: 240.0 mg/kg/injection, schedule: Q01DX Z (oral), vehicle: carboxymethylcellulose (CMC)
[12] = dose: 480.0 mg/kg/injection, schedule: Q01DX Z (oral), vehicle: carboxymethylcellulose (CMC)
[13] = dose: 100.0 mg/kg/injection, schedule: Q04DX002 (ip), vehicle: Klucel (hydroxypropylcellulose) (HPC)
[14] = dose: 200.0 mg/kg/injection, schedule: Q04DX002 (ip), vehicle: Klucel (hydroxypropylcellulose) (HPC)
[15] = dose: 400.0 mg/kg/injection, schedule: Q04DX002 (ip), vehicle: Klucel (hydroxypropylcellulose) (HPC)
[16] = dose: 100.0 mg/kg/injection, schedule: Q04DX003 (ip), vehicle: saline with Tween-80
[17] = dose: 200.0 mg/kg/injection, schedule: Q04DX003 (ip), vehicle: saline with Tween-80
[18] = dose: 400.0 mg/kg/injection, schedule: Q04DX003 (ip), vehicle: saline with Tween-80
[19] = dose: 100.0 mg/kg/injection, schedule: Q01DX009 (ip), vehicle: Klucel (hydroxypropylcellulose) (HPC)
[20] = dose: 100.0 mg/kg/injection, schedule: Q04DX003 (ip), vehicle: Klucel (hydroxypropylcellulose) (HPC)
[21] = dose: 200.0 mg/kg/injection, schedule: Q01DX009 (ip), vehicle: Klucel (hydroxypropylcellulose) (HPC)
[22] = dose: 200.0 mg/kg/injection, schedule: Q04DX003 (ip), vehicle: Klucel (hydroxypropylcellulose) (HPC)
[23] = dose: 400.0 mg/kg/injection, schedule: Q04DX003 (ip), vehicle: Klucel (hydroxypropylcellulose) (HPC)
[24] = dose: 100.0 mg/kg/injection, schedule: Q01DX009 (ip), vehicle: saline with Tween-80
[25] = dose: 400.0 mg/kg/injection, schedule: Q01DX009 (ip), vehicle: Klucel (hydroxypropylcellulose) (HPC)
[26] = dose: 25.0 mg/kg/injection, schedule: Q01DX009 (ip), vehicle: saline with Tween-80
[27] = dose: 50.0 mg/kg/injection, schedule: Q01DX009 (ip), vehicle: saline with Tween-80
[28] = dose: 400.0 mg/kg/injection, schedule: Q01DX001 (ip), vehicle: saline

Measured: T/C

CCCCN1C(=O)NC(=O)C1c1ccsc1 (centres undefined)
inactive: [1] 103 % of control | [2] 94 % of control | [3] 100 % of control

CC1(C)N=C(N)N=C(N)N1c1cccc(CNc2ccccc2)c1
inactive: dose: 3.12 mg/kg/injection, schedule: Q01DX001 (ip), vehicle: saline 95 % of control | dose: 6.25 mg/kg/injection, schedule: Q01DX001 (ip), vehicle: saline 103 % of control | dose: 12.5 mg/kg/injection, schedule: Q01DX001 (ip), vehicle: saline 98 % of control | dose: 25.0 mg/kg/injection, schedule: Q01DX001 (ip), vehicle: saline 93 % of control

O=C(CC1CCCCN1)CC1CCCCN1 (centres undefined)
inactive: [4] 92 % of control | [5] 101 % of control

Cc1cc(NS(=O)(=O)c2ccc(N=Nc3c(N)[nH]c(=S)[nH]c3=O)cc2)nc(C)n1
inactive: [6] 96 % of control | [7] 100 % of control

O=S(=O)(O)c1cc(O)c2ccccc2c1
inactive: dose: 100.0 mg/kg/injection, schedule: Q01DX009 (ip), vehicle: saline 90 % of control | [4] 109 % of control | dose: 200.0 mg/kg/injection, schedule: Q01DX009 (ip), vehicle: saline 90 % of control | [5] 109 % of control | dose: 400.0 mg/kg/injection, schedule: Q01DX009 (ip), vehicle: saline 95 % of control | dose: 400.0 mg/kg/injection, schedule: Q04DX003 (ip), vehicle: saline 109 % of control

COc1ccc(/C(Cc2ccccc2)=N\N=C(N)N)cc1
inactive: [8] 97 % of control | [9] 97 % of control | [10] 97 % of control | dose: 120.0 mg/kg/injection, schedule: Q01DX Z (ip), vehicle: carboxymethylcellulose (CMC) 101 % of control | [11] 108 % of control | [12] 104 % of control | dose: 960.0 mg/kg/injection, schedule: Q01DX Z (oral), vehicle: carboxymethylcellulose (CMC) 88 % of control

CC1=CC(=O)NP(=O)(Oc2ccc3ccccc3c2)N1 (centres undefined)
inactive: dose: 50.0 mg/kg/injection, schedule: Q01DX005 (ip), vehicle: other 95 % of control | dose: 100.0 mg/kg/injection, schedule: Q01DX005 (ip), vehicle: other 96 % of control | dose: 200.0 mg/kg/injection, schedule: Q01DX005 (ip), vehicle: other 95 % of control | dose: 400.0 mg/kg/injection, schedule: Q01DX005 (ip), vehicle: other 92 % of control

CC(C)OC(=S)SCC(=O)c1ccc(-c2ccccc2)cc1
inactive: [13] 96 % of control | [14] 92 % of control | [15] 96 % of control

O=C(c1ccccc1)C(O)(c1ccccc1)C1CCCC/C1=N\N(c1ccccc1)c1ccccc1 (centres undefined)
inactive: [16] 92 % of control | [17] 96 % of control | [18] 94 % of control

Cc1nc2[nH][nH]c(=O)c2nc1C
inactive: dose: 50.0 mg/kg/injection, schedule: Q01DX009 (ip), vehicle: Klucel (hydroxypropylcellulose) (HPC) 94 % of control | [19] 100 % of control | [20] 97 % of control | [21] 94 % of control | [22] 105 % of control | [23] 102 % of control

Fc1ccc(NC2(c3nnnn3C3CCCCC3)CCNCC2)cc1
inactive: dose: 6.25 mg/kg/injection, schedule: Q01DX001 (ip), vehicle: saline with Tween-80 102 % of control | dose: 12.5 mg/kg/injection, schedule: Q01DX001 (ip), vehicle: saline with Tween-80 100 % of control | dose: 25.0 mg/kg/injection, schedule: Q01DX001 (ip), vehicle: saline with Tween-80 98 % of control

Nc1ncc(CNc2ccc(C(=O)NC(CC(=O)O)C(=O)O)cc2)c(N)n1 (centres undefined)
inactive: dose: 100.0 mg/kg/injection, schedule: Q01DX001 (ip), vehicle: saline with Tween-80 93 % of control | [24] 106 % of control | [16] 93 % of control | dose: 200.0 mg/kg/injection, schedule: Q01DX001 (ip), vehicle: saline with Tween-80 105 % of control | dose: 200.0 mg/kg/injection, schedule: Q01DX009 (ip), vehicle: saline with Tween-80 100 % of control | [17] 97 % of control | dose: 400.0 mg/kg/injection, schedule: Q01DX001 (ip), vehicle: saline with Tween-80 100 % of control | dose: 400.0 mg/kg/injection, schedule: Q01DX009 (ip), vehicle: saline with Tween-80 105 % of control | [18] 98 % of control

CC(=O)OC1C=CN(C(C)=O)C(SC23CC4CC(CC(C4)C2)C3)C1O (centres undefined)
inactive: [19] 97 % of control | [21] 97 % of control | [25] 95 % of control

CC(=O)[O][Pb]([O]C(C)=O)([c]1ccccc1)[c]1ccccc1
inactive: [13] 98 % of control | dose: 100.0 mg/kg/injection, schedule: Q04DX002 (ip), vehicle: saline with Tween-80 102 % of control | [14] 102 % of control | dose: 200.0 mg/kg/injection, schedule: Q04DX002 (ip), vehicle: saline with Tween-80 102 % of control | [15] 105 % of control

O=C(O)/C=C/c1ccccn1
inactive: dose: 20.0 mg/kg/injection, schedule: Q04DX003 (ip), vehicle: Klucel (hydroxypropylcellulose) (HPC) 102 % of control | dose: 40.0 mg/kg/injection, schedule: Q04DX003 (ip), vehicle: Klucel (hydroxypropylcellulose) (HPC) 100 % of control | dose: 80.0 mg/kg/injection, schedule: Q04DX003 (ip), vehicle: Klucel (hydroxypropylcellulose) (HPC) 94 % of control | [20] 93 % of control | [22] 100 % of control

COc1ccc(C(c2ccc(Cl)cc2)N2CCNCC2)cc1 (centres undefined)
inactive: [26] 98 % of control | [27] 96 % of control | [24] 96 % of control | [16] 102 % of control

CCOC(=O)Nc1ccccc1
inactive: [19] 97 % of control | [20] 93 % of control | [21] 103 % of control | [22] 93 % of control | [25] 103 % of control | [23] 88 % of control

CCCCCC[Si](C)(C)C
inactive: [1] 89 % of control | [2] 91 % of control | [3] 89 % of control

CC1CCC2(NC1)OC1CC3C4CC=C5CC(OC(=O)N(CCCl)CCCl)CCC5(C)C4CCC3(C)C1C2C (centres undefined)
inactive: dose: 100.0 mg/kg/injection, schedule: Q01DX001 (sc), vehicle: steriod suspending solution 97 % of control | dose: 200.0 mg/kg/injection, schedule: Q01DX001 (sc), vehicle: steriod suspending solution 123 % of control | dose: 400.0 mg/kg/injection, schedule: Q01DX001 (sc), vehicle: steriod suspending solution 97 % of control

O=S(=O)(O)c1ccc(N=Nc2ccc(O)cc2)cc1
inactive: [26] 104 % of control | [27] 102 % of control | [19] 88 % of control | [24] 101 % of control | [20] 92 % of control and 98 % of control | [16] 107 % of control | [21] 88 % of control | [22] 92 % of control and 102 % of control | [25] 90 % of control | [23] 97 % of control

COc1cc(C(=O)Nc2cc(C(F)(F)F)ccc2Cl)cc(OC)c1OC
inactive: [19] 106 % of control | [21] 100 % of control | [25] 97 % of control

O=c1c(CO)c[nH]cc1CO
inactive: [6] 101 % of control | [7] 103 % of control | [28] 107 % of control

CC(C)=C1CCC(C)C/C1=N\N=C(N)N (centres undefined)
inactive: [8] 100 % of control | [9] 106 % of control | [10] 89 % of control | dose: 120.0 mg/kg/injection, schedule: Q01DX Z (oral), vehicle: carboxymethylcellulose (CMC) 97 % of control | [11] 97 % of control | [12] 101 % of control

COC(=O)C(Nc1ccc([N+](=O)[O-])cc1[N+](=O)[O-])C(O)c1ccccc1 (centres undefined)
inactive: [6] 98 % of control | [7] 111 % of control | [28] 93 % of control

CC(C)[N+](C(C)C)(C(C)C)C(C)C.[I][Pb]([I])([I])[I]
inactive: [16] 95 % of control | [17] 98 % of control | [18] 93 % of control

Reference: PubChem BioAssay AID248 (DTP/NCI, 2004)
